Like-named read-outs stand apart in the source and are kept apart here.
Key:
Assay type in all cases: cell-based, human
[1] = tested on: lung cancer cell line A549; experiment: MTT cytotoxicity assay, A549; conditions: A549 cells, 8000 cells/well, 24 h incubation with compound, absorbance 490 nm, read-out: IC50 (μmol/L) A549
Text: (§1) A small library derived from 6a–b, 9 and 10a–c was obtained by hydrolysis of the macrocycles and condensation with amines. The anti-tumor activities for lung cancer cell line A549, breast cancer cell line MDA-MB-231 and hepatocarcinoma cell line Hep G2 of all these new compounds were screened in vitro by an MTT assay. Most of the compounds show some inhibitory activities against A549, MDA-MB-231 and Hep G2. […] In the future, further structure–activity relationship studies will be performed to determine how the substituents affected the anti-tumor activity and to design the best chemical structure in the future.
(§2) The human lung cancer cell line A549, breast cancer cell line MDA-MB-231 and hepatocarcinoma cell line Hep G2 were cultured in Dulbecco’s modified Eagle’s medium (DMEM) supplemented with antibiotics (penicillin 50 U/mL; streptomycin 50 µg/mL) and 10% FCS. The incubation was at 37 °C in a humidified atmosphere of 5% CO2 in air before experiments. Cells were first seeded at a density of 8000 cells/well in a 96-well plate for 48 hours. Solutions containing respective concentrations of compounds were added into wells and incubation continued for another 24 hours. After that, the MTT (3-(4,5-dimethylthiazol-2-yl)-2,5-diphenyltetrazolium bromide) dye stock solution (10 μL, 5 mg/mL) was added to each well. After 4 h, the supernatant was removed and DMSO (100 μL) was added to solubilize the MTT. The absorbance was measured at a wave length of 490 nm (A490nm) on an ELISA microplate reader. Results were expressed as IC50 values.

[2] = tested on: breast cancer cell line MDA-MB-231; experiment: MTT cytotoxicity assay, MDA-MB-231; conditions: MDA-MB-231 cells, 8000 cells/well, 24 h incubation with compound, absorbance 490 nm, read-out: IC50 (μmol/L) MDA-MB-231
Text: as §1, §2

[3] = tested on: hepatocarcinoma cell line Hep G2; experiment: MTT cytotoxicity assay, Hep G2; conditions: 8000 cells/well, 24 h incubation with compound, absorbance 490 nm, read-out: IC50 (μmol/L) Hep G2
Text: as §1, §2

[4] = Homo sapiens, HepG2, Hep G2 cells

N.N.[Cl][Pt][Cl] [Cisplatin, reference compound]
IC50 [1]: 15.4 µmol/L
IC50 [2]: 19.7 µmol/L
IC50 ([3]; Hep G2 cells): 17.4 µmol/L

O=C(O)[C@@H]1C[C@@H]2CN1C(=O)c1cccc(c1)OCCn1cc(nn1)CO2 [Compound 22, (11R,13S)-15-Oxo-2,10-dioxa-5,6,7,14-tetraaza-tetracyclo[14.3.1.1^5,8.1^11,14]docosane-6,8(21),1(20),16,18-pentaene-13-carboxylic acid]
IC50 [1]: 32.2 µmol/L
IC50 [2]: 45.1 µmol/L
IC50 ([3]; Hep G2 cells): 44.2 µmol/L

NC(=O)[C@@H]1C[C@@H]2CN1C(=O)c1cccc(c1)OCCn1cc(nn1)CO2 [Compound 23, (11R,13S)-15-Oxo-2,10-dioxa-5,6,7,14-tetraaza-tetracyclo[14.3.1.1^5,8.1^11,14]docosane-6,8(21),1(20),16,18-pentaene-13-carboxamide]
IC50 [1]: 26.8 µmol/L
IC50 [2]: 29.9 µmol/L
IC50 ([3]; Hep G2 cells): 37.3 µmol/L

O=C(Nc1ccccc1)[C@@H]1C[C@@H]2CN1C(=O)c1cccc(c1)OCCn1cc(nn1)CO2 [Compound 24, (11R,13S)-15-Oxo-N-phenyl-2,10-dioxa-5,6,7,14-tetraaza-tetracyclo[14.3.1.1^5,8.1^11,14]docosane-6,8(21),1(20),16,18-pentaene-13-carboxamide]
IC50 [1]: 45.7 µmol/L
IC50 [2]: 35.6 µmol/L
IC50 ([3]; Hep G2 cells): 46.3 µmol/L

CC(C)CNC(=O)[C@@H]1C[C@@H]2CN1C(=O)c1cccc(c1)OCCn1cc(nn1)CO2 [Compound 25, (11R,13S)-15-Oxo-N-isobutyl-2,10-dioxa-5,6,7,14-tetraaza-tetracyclo[14.3.1.1^5,8.1^11,14]docosane-6,8(21),1(20),16,18-pentaene-13-carboxamide]
IC50 [1]: 37.7 µmol/L
IC50 [2]: 42.5 µmol/L
IC50 ([3]; Hep G2 cells): 48.3 µmol/L

O=C(O)[C@@H]1C[C@@H]2CN1C(=O)c1cccc(c1)OCCn1nncc1CO2 [Compound 26, (12R,14S)-16-Oxo-2,11-dioxa-5,6,7,15-tetraaza-tetracyclo[15.3.1.1^12,15.0^5,9]docosane-6,8,1(21),17,19-pentaene-14-carboxylic acid]
IC50 ([1]; Homo sapiens): 37.1 µmol/L
IC50 ([2]; Homo sapiens): 34.3 µmol/L
IC50 [3, 4]: 44.9 µmol/L

NC(=O)[C@@H]1C[C@@H]2CN1C(=O)c1cccc(c1)OCCn1nncc1CO2 [Compound 27, (12R,14S)-16-Oxo-2,11-dioxa-5,6,7,15-tetraaza-tetracyclo[15.3.1.1^12,15.0^5,9]docosane-6,8,1(21),17,19-pentaene-14-carboxamide]
IC50 ([1]; Homo sapiens): 41.3 µmol/L
IC50 ([2]; Homo sapiens): 28 µmol/L
IC50 [3, 4]: 34.7 µmol/L

O=C(Nc1ccccc1)[C@@H]1C[C@@H]2CN1C(=O)c1cccc(c1)OCCn1nncc1CO2 [Compound 28, (12R,14S)-16-Oxo-N-phenyl-2,11-dioxa-5,6,7,15-tetraaza-tetracyclo[15.3.1.1^12,15.0^5,9]docosane-6,8,1(21),17,19-pentaene-14-carboxamide]
IC50 ([1]; Homo sapiens): 46.3 µmol/L
IC50 ([2]; Homo sapiens): 43.7 µmol/L
IC50 [3, 4]: 36.3 µmol/L

CC(C)CNC(=O)[C@@H]1C[C@@H]2CN1C(=O)c1cccc(c1)OCCn1nncc1CO2 [Compound 29, (12R,14S)-16-Oxo-N-isobutyl-2,11-dioxa-5,6,7,15-tetraaza-tetracyclo[15.3.1.1^12,15.0^5,9]docosane-6,8,1(21),17,19-pentaene-14-carboxamide]
IC50 ([1]; Homo sapiens): 32.2 µmol/L
IC50 ([2]; Homo sapiens): 43.2 µmol/L
IC50 [3, 4]: 37.3 µmol/L

O=C(O)[C@@H]1C[C@@H]2CN1C(=O)c1cccc(c1)OC/C=C\CO2 [Compound 30, (4Z,8R,10S)-12-Oxo-2,7-dioxa-11-aza-tricyclo[11.3.1.1^8,11]octadecane-4,1(17),13,15-tetraene-10-carboxylic acid]
IC50 ([1]; Homo sapiens): 11.2 µmol/L
IC50 ([2]; Homo sapiens): 10.3 µmol/L
IC50 [3, 4]: 23.2 µmol/L

NC(=O)[C@@H]1C[C@@H]2CN1C(=O)c1cccc(c1)OC/C=C\CO2 [Compound 31, (4Z,8R,10S)-12-Oxo-2,7-dioxa-11-aza-tricyclo[11.3.1.1^8,11]octadecane-4,1(17),13,15-tetraene-10-carboxamide]
IC50 ([1]; Homo sapiens): 5.21 µmol/L
IC50 ([2]; Homo sapiens): 12.3 µmol/L
IC50 [3, 4]: 31.9 µmol/L

O=C(Nc1ccccc1)[C@@H]1C[C@@H]2CN1C(=O)c1cccc(c1)OC/C=C\CO2 [Compound 32, (4Z,8R,10S)-12-Oxo-N-phenyl-2,7-dioxa-11-aza-tricyclo[11.3.1.1^8,11]octadecane-4,1(17),13,15-tetraene-10-carboxamide]
IC50 ([1]; Homo sapiens): 4.76 µmol/L
IC50 ([2]; Homo sapiens): 9.67 µmol/L
IC50 [3, 4]: 26.3 µmol/L

CC(C)CNC(=O)[C@@H]1C[C@@H]2CN1C(=O)c1cccc(c1)OC/C=C\CO2 [Compound 33, (4Z,8R,10S)-12-Oxo-N-isobutyl-2,7-dioxa-11-aza-tricyclo[11.3.1.1^8,11]octadecane-4,1(17),13,15-tetraene-10-carboxamide]
IC50 ([1]; Homo sapiens): 2.55 µmol/L
IC50 ([2]; Homo sapiens): 11.9 µmol/L
IC50 [3, 4]: 41.1 µmol/L

O=C(O)[C@@H]1C[C@@H]2CN1C(=O)c1cccc(c1)OCCCCO2 [Compound 34, (8R,10S)-12-Oxo-2,7-dioxa-11-aza-tricyclo[11.3.1.1^8,11]octadecane-1(17),13,15-triene-10-carboxylic acid]
IC50 ([1]; Homo sapiens): > 100 µmol/L
IC50 ([2]; Homo sapiens): 96.2 µmol/L
IC50 [3, 4]: 96.2 µmol/L

NC(=O)[C@@H]1C[C@@H]2CN1C(=O)c1cccc(c1)OCCCCO2 [Compound 35, (8R,10S)-12-Oxo-2,7-dioxa-11-aza-tricyclo[11.3.1.1^8,11]octadecane-1(17),13,15-triene-10-carboxamide]
IC50 ([1]; Homo sapiens): 89.5 µmol/L
IC50 ([2]; Homo sapiens): 90.5 µmol/L
IC50 [3, 4]: 91.5 µmol/L

O=C(Nc1ccccc1)[C@@H]1C[C@@H]2CN1C(=O)c1cccc(c1)OCCCCO2 [Compound 36, (8R,10S)-12-Oxo-N-phenyl-2,7-dioxa-11-aza-tricyclo[11.3.1.1^8,11]octadecane-1(17),13,15-triene-10-carboxamide]
IC50 ([1]; Homo sapiens): 54.3 µmol/L
IC50 ([2]; Homo sapiens): 85.3 µmol/L
IC50 [3, 4]: 95.4 µmol/L

CC(C)CNC(=O)[C@@H]1C[C@@H]2CN1C(=O)c1cccc(c1)OCCCCO2 [Compound 37, (8R,10S)-12-Oxo-N-isobutyl-2,7-dioxa-11-aza-tricyclo[11.3.1.1^8,11]octadecane-1(17),13,15-triene-10-carboxamide]
IC50 ([1]; Homo sapiens): 77.9 µmol/L
IC50 ([2]; Homo sapiens): 86.3 µmol/L
IC50 [3, 4]: 73.1 µmol/L

O=C(O)[C@@H]1C[C@@H]2CN1C(=O)c1cccc(c1)OCCCCCO2 [Compound 38, (9R,11S)-13-Oxo-2,8-dioxa-12-aza-tricyclo[12.3.1.1^9,12]nonadecane-1(18),14,16-triene-11-carboxylic acid]
IC50 ([1]; Homo sapiens): > 100 µmol/L
IC50 ([2]; Homo sapiens): 92.3 µmol/L
IC50 [3, 4]: > 100 µmol/L

NC(=O)[C@@H]1C[C@@H]2CN1C(=O)c1cccc(c1)OCCCCCO2 [Compound 39, (9R,11S)-13-Oxo-2,8-dioxa-12-aza-tricyclo[12.3.1.1^9,12]nonadecane-1(18),14,16-triene-11-carboxamide]
IC50 ([1]; Homo sapiens): 63.7 µmol/L
IC50 ([2]; Homo sapiens): 57.3 µmol/L
IC50 [3, 4]: > 100 µmol/L

O=C(Nc1ccccc1)[C@@H]1C[C@@H]2CN1C(=O)c1cccc(c1)OCCCCCO2 [Compound 40, (9R,11S)-13-Oxo-N-phenyl-2,8-dioxa-12-aza-tricyclo[12.3.1.1^9,12]nonadecane-1(18),14,16-triene-11-carboxamide]
IC50 ([1]; Homo sapiens): 88 µmol/L
IC50 ([2]; Homo sapiens): 76.4 µmol/L
IC50 [3, 4]: 68.4 µmol/L

CC(C)CNC(=O)[C@@H]1C[C@@H]2CN1C(=O)c1cccc(c1)OCCCCCO2 [Compound 41, (9R,11S)-13-Oxo-N-isobutyl-2,8-dioxa-12-aza-tricyclo[12.3.1.1^9,12]nonadecane-1(18),14,16-triene-11-carboxamide]
IC50 ([1]; Homo sapiens): 34.9 µmol/L
IC50 ([2]; Homo sapiens): 47.3 µmol/L
IC50 [3, 4]: > 100 µmol/L

O=C(O)[C@@H]1C[C@@H]2CN1C(=O)c1cccc(c1)OCCCCCCO2 [Compound 42, (10R,12S)-14-Oxo-2,9-dioxa-13-aza-tricyclo[13.3.1.1^10,13]eicosane-1(19),15,17-triene-12-carboxylic acid]
IC50 ([1]; Homo sapiens): > 100 µmol/L
IC50 ([2]; Homo sapiens): > 100 µmol/L
IC50 [3, 4]: 87.4 µmol/L

NC(=O)[C@@H]1C[C@@H]2CN1C(=O)c1cccc(c1)OCCCCCCO2 [Compound 43, (10R,12S)-14-Oxo-2,9-dioxa-13-aza-tricyclo[13.3.1.1^10,13]eicosane-1(19),15,17-triene-12-carboxamide]
IC50 ([1]; Homo sapiens): 69.7 µmol/L
IC50 ([2]; Homo sapiens): 66 µmol/L
IC50 [3, 4]: 64.9 µmol/L

O=C(Nc1ccccc1)[C@@H]1C[C@@H]2CN1C(=O)c1cccc(c1)OCCCCCCO2 [Compound 44, (10R,12S)-14-Oxo-N-phenyl-2,9-dioxa-13-aza-tricyclo[13.3.1.1^10,13]eicosane-1(19),15,17-triene-12-carboxamide]
IC50 ([1]; Homo sapiens): 98.2 µmol/L
IC50 ([2]; Homo sapiens): 23.1 µmol/L
IC50 [3, 4]: 88.1 µmol/L

Reference: PMC6274554, “Synthetic Strategy and Anti-Tumor Activities of Macrocyclic Scaffolds Based on 4-Hydroxyproline” (Molecules, 2016)
